8 compounds from ChEMBL document CHEMBL2321817, “Detecting allosteric sites of HIV-1 reverse transcriptase by X-ray crystallographic fragment screening” (J Med Chem, 2013) can be followed below.

For assay [1], the target named is T1, Human immunodeficiency virus type 1 reverse transcriptase (Human immunodeficiency virus 1, UniProt Q72547). The assay is described as follows: Inhibition of wild type HIV-1 reverse transcriptase 507 site incubated after 30 mins by fluorescence assay.
The target in assay [2] is Human immunodeficiency virus type 1 reverse transcriptase (Human immunodeficiency virus 1) (UniProt Q72547). The assay is described as follows: Inhibition of wild type HIV-1 reverse transcriptase 428 site at 1 mM after 30 mins by fluorescence assay relative to control.
The target of assay [3] is T1, Human immunodeficiency virus type 1 reverse transcriptase. The assay is described as follows: Inhibition of wild type HIV-1 reverse transcriptase incoming nucleotide binding site after 30 mins by fluorescence assay.
The target is the same in assay [4]. The assay is described as follows: Inhibition of wild type HIV-1 reverse transcriptase knuckles site after 30 mins by fluorescence assay.
For assay [5], the target named is Human immunodeficiency virus type 1 reverse transcriptase (Human immunodeficiency virus 1) (UniProt Q72547). The assay is described as follows: Inhibition of wild type HIV-1 reverse transcriptase p66/p51 399 site after 30 mins by fluorescence assay.
In assay [6] the target is T1, Human immunodeficiency virus type 1 reverse transcriptase. The assay is described as follows: Inhibition of wild type HIV-1 reverse transcriptase p66/p51 NNRTI adjacent binding site after 30 mins by fluorescence assay.
Assay [7] addresses Human immunodeficiency virus type 1 reverse transcriptase (Human immunodeficiency virus 1) (UniProt Q72547). The assay is described as follows: Inhibition of wild type HIV-1 reverse transcriptase RNase H primer grip adjacent site after 30 mins by fluorescence assay.
Assay [8] shares this target. The assay is described as follows: Inhibition of wild type HIV-1 reverse transcriptase knuckles site at 1 mM after 30 mins by fluorescence assay.

The source made the active and inactive calls. The calls are words filed in the database; no cut-off is given here.

In general, IC50 refers to the point on the concentration scale where inhibition reaches its midpoint. In assay [1], `CN(CC(=O)N1CCCc2ccccc21)Cc1nc(=O)c2ccccc2[nH]1` had an IC50 of 150 µM.

As a reminder, the inhibition is the share of the control response that was lost under treatment. The compound `NCC(=O)Nc1ccc2[nH]c(=O)[nH]c2c1` showed an inhibition in assay [2] of 30%.

As to `CN1CCN(c2ccc(C(=O)O)cc2)CC1`, in assay [3], the half-inhibitory concentration (IC50) came out at 200 µM.

With `Oc1ccc(OC(F)(F)F)cc1`, in assay [4], it took 600 µM to reach half-maximal inhibition (IC50).

Turning to `Cc1c(CO)cnn1-c1ccc(F)cc1`, in assay [5], the inhibition result is “inactive”.

`CCOC(=O)c1cnn2ccccc12` registered a half-inhibitory concentration (IC50) in assay [6] of 350 µM.

Consider `Cn1ncc(C(=O)O)c1-c1ccccc1`, for which the inhibition entry in assay [7] was “inactive”.

With `NCc1ccc(OC(F)(F)F)cc1`, the inhibition entry in assay [8] was “inactive”.
